This is an account of results in US20220146526A1, “METHOD FOR EVALUATING SAMPLE, ANALYSIS METHOD, METHOD FOR DETECTING DEGRADED SAMPLE, MARKER FOR DETECTING DEGRADED BLOOD PLASMA SAMPLE, AND MARKER FOR DETECTING DEGRADED SERUM SAMPLE” (SHIMADZU CORPORATION, priority 2019, published 2022).

Common to all, as to assay type: physicochemical, human
The nature of data set [1]: LC/MS of blood plasma sample: time from blood collection to centrifugation (Table D). To be noted: blood collection to centrifugation; for Rate of increase or decrease: detection intensity relative to 1 at 15 minutes, after 4 hours; for Increase or decrease: detection intensity, after 4 hours vs 15 minutes. In outline:
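Healthy-subject blood (5 mL, EDTA) cooled and held at 4 °C before centrifugation (4 °C, 3000 rpm, 15 min), with plasma then frozen. LC/MS on Discovery HS F5-3 column at 40 °C, 0.1% formic acid water/acetonitrile, 0.25 mL/min, electrospray, MRM; intensities relative to 15 min collection-to-centrifugation set as 1.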

Data set [2] in a line: LC/MS of blood plasma sample: time from blood collection to cooling of blood (Table E). To be noted: for Increase or decrease: detection intensity, blood collection to cooling 5 minutes or more vs 1 minute or less; for Rate of increase or decrease (second value, decrease) / Rate of increase or decrease (first value, increase): different from individual to individual, relative to 1 at 1 minute or less, collection to cooling 5 minutes; for Rate of increase or decrease (second value, decrease): individuals with decrease; for Rate of increase or decrease (first value, increase): individuals with increase. Also noted: key to Rate of increase or decrease / Rate of increase or decrease (first value, increase): detection intensity relative to ≤1 min to cooling = 1.

Data set [3] in a line: LC/MS of blood plasma sample: number of times of freezing and thawing (Table F). Particulars: for Rate of increase or decrease: detection intensity relative to 1 at 2 times, freezing and thawing 4 times; for Increase or decrease: detection intensity. In outline:
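Human blood from a healthy subject drawn into EDTA tubes, cooled to 4° C within 1 min or after ≥5 min, centrifuged at 4° C, 3000 rpm, 15 min. Plasma frozen, then freeze-thawed 2, 4, 6 or 10 times and analysed by LC/MS (ESI, MRM). Intensities expressed relative to 2 freeze-thaw cycles set as 1.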

Data set [4] can be described thus: GC/MS of serum sample: time from blood collection to centrifugation (Table G). To be noted: blood collection to centrifugation. In outline: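 Blood was held for varying times before centrifugation (room temperature, 3500 rpm, 5 min); serum was frozen, then methoxymated and trimethylsilylated for GC/MS with electron ionization in MRM mode. Values are detection intensities relative to the 15-minute collection-to-centrifugation condition, set as 1.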

Data set [5] in a line: GC/MS of serum sample: time from centrifugation to isolation (Table H). Also noted: key to Rate of increase or decrease / Rate of increase or decrease (first value, increase): detection intensity relative to 1 at 30 min centrifugation-to-isolation. Put shortly: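 Blood was centrifuged at room temperature, 3500 rpm, 5 min, and the vessel left at room temperature for 30 min, 1 h or 6 h before serum isolation. Serum was methoxymated, trimethylsilylated and analysed by GC/MS with electron ionization in MRM mode; intensities expressed relative to the 30-min condition (=1).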

The nature of data set [6]: GC/MS of serum sample: number of times of freezing and thawing (Table I). Also noted: key to Rate of increase or decrease / Rate of increase or decrease (first value, increase): detection intensity relative to 2 freeze-thaw cycles = 1. To be noted: serum, GC/MS. In outline: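 Serum was isolated after centrifugation at room temperature (3500 rpm, 5 min), frozen, and put through 2, 4, 6 or 10 freeze–thaw cycles. Samples were methoxymated and trimethylsilylated, then run by electron-ionization GC/MS in MRM mode on a BPX5 column (60 to 330 °C). Detection intensity is given relative to the 2-cycle sample, set as 1.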

Data set [7] can be described thus: LC/MS of serum sample: time from blood collection to centrifugation (Table J). To be noted: for Rate of increase or decrease: after 4 hours from blood collection to centrifugation, detection intensity relative to 1 at 15 minutes; for Increase or decrease / Time when compound is affected: serum sample, LC/MS; for Increase or decrease: detection intensity vs 15 minutes from blood collection to centrifugation; for Time when compound is affected: time from blood collection to centrifugation, detection intensity changed by 30% or more vs 15 minutes. Put shortly:
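Serum from blood centrifuged at room temperature, 3500 rpm, 5 min, then frozen; analysed by LC/MS on a Discovery HS F5-3 column at 40 °C. Mobile phase: 0.1% formic acid in water/acetonitrile, 0.25 mL/min, electrospray MRM. Values are intensity relative to a 15 min collection-to-centrifugation time.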

The nature of data set [8]: LC/MS of serum sample: time from centrifugation to isolation (Table K). Also noted: key to Rate of increase or decrease: detection intensity relative to the 30-minute value set as 1. To be noted: for Rate of increase or decrease: after 1 hour from centrifugation to isolation, detection intensity relative to 1 at 30 minutes; for Increase or decrease / Time when compound is affected: serum sample, LC/MS; for Increase or decrease: detection intensity vs 30 minutes from centrifugation to isolation; for Time when compound is affected: time from centrifugation to isolation, detection intensity changed by 30% or more vs 30 minutes. In outline: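 Serum left at room temperature 30 min, 1 h or 6 h between centrifugation (3500 rpm, 5 min, room temperature) and isolation, then frozen and analysed by LC/MS (Discovery HS F5-3 column, 40° C., 0.1% formic acid water/acetonitrile, electrospray, MRM). Values are detection intensity relative to the 30-min condition set to 1.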

Data set [9] can be described thus: LC/MS of serum sample: number of times of freezing and thawing (Table M). Also noted: key to Rate of increase or decrease: detection intensity relative to 1 at 2 freeze-thaw cycles. To be noted: for Number of times when compound is affected / Increase or decrease: serum sample, LC/MS; for Number of times when compound is affected: detection intensity changed by 30% or more vs 2 times of freezing and thawing; for Increase or decrease: detection intensity vs 2 times of freezing and thawing. Put shortly:
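Serum was isolated at room temperature after centrifugation at room temperature, 3500 rpm, 5 minutes, then frozen and freeze-thawed 2, 4, 6 or 10 times. LC/MS used a Discovery HS F5-3 column at 40° C with formic acid water/acetonitrile, electrospray MRM. Intensity is relative to 2 freeze-thaw cycles.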

[10] abbreviates: freezing and thawing 4 times vs 2 times.
Where [11] appears, read: 4 times of freezing and thawing, detection intensity relative to 1 at 2 times.

SMILES strings stand for the structures.

As for `Nc1ncnc2c1ncn2[C@@H]1O[C@H](CO)[C@@H](O)[C@H]1O` [Adenosine], the “Rate of increase or decrease” value was 1.39 in [1]; 1.52 in data set [2] (detection intensity relative to 1 at 1 minute or less, blood collection to cooling 5 minutes); 0.58 in data set [3]; 0.17 in data set [4] (detection intensity relative to 1 at 15 minutes, after 4 hours); 3.11 in data set [5] (detection intensity relative to 1 at 30 minutes, after 1 hour); 0.36 in data set [6] (detection intensity relative to 1 at 2 times, freezing and thawing 4 times). In addition, the “Rate of increase or decrease” value in [7] stood at 0.29; in [8], 0.07; in [9] (setting [11]) it was 0.54. In addition, the Increase or decrease entry was “Increase” in [1]; “Increase” in [2]; “Decrease” in data set [3] (setting [10]); “Decrease” in data set [4] (detection intensity, after 4 hours vs 15 minutes); “Increase” in data set [5] (detection intensity, after 1 hour vs 30 minutes); “Decrease” in data set [6] (detection intensity, freezing and thawing 4 times vs 2 times). Besides, the Increase or decrease entry in data set [7], in data set [8] and in data set [9] was “Decrease” in each case. The “Time when compound is affected” value in [7] was “After 4 hours”; in data set [8], “After 1 hour hours”. Further, in [9], the “Number of times when compound is affected” value (“Number of times” for short) is 4 times.
For the compound `OC[C@H]1O[C@@H](n2cnc3c(O)ncnc32)[C@H](O)[C@@H]1O` [Inosine], the “Rate of increase or decrease” value in data set [1] came out at 2.26; in [7], 0.17; in [8], 0.61; in data set [9] (setting [11]), 1.44. Further, the Increase or decrease entry is listed as “Increase” in data set [1]; “Different from individual” in [2]; “Different from individual” in data set [3] (freezing and thawing 6 times vs 2 times); “Decrease” in data set [7]; “Decrease” in data set [8]; “Increase” in data set [9]. Further, the “Rate of increase or decrease (second value, decrease)” value in data set [2] worked out at 0.64; in data set [3] (different from individual to individual, individuals with decrease, relative to 1 at 2 times, freezing and thawing 6 times), 0.53. Besides, the “Rate of increase or decrease (first value, increase)” value was 18.25 in data set [2]; 1.67 in data set [3] (different from individual to individual, individuals with increase, relative to 1 at 2 times, freezing and thawing 6 times). The “Time when compound is affected” value in data set [7] is reported as “After 4 hours”; in [8], “After 1 hour hours”. Further, the “Number of times” value in [9] was 4 times.
`Nc1ncnc2c1ncn2[C@@H]1O[C@H](CSCC[C@H](N)C(=O)O)[C@@H](O)[C@H]1O` [S-adenosylhomocysteine]: the “Rate of increase or decrease” value is given as 0.66 in data set [1]; 2.09 in data set [3]; 2.82 in [7]; 1.51 in data set [8]; 1.62 in data set [9] (6 times of freezing and thawing, relative to 1 at 2 times, different from individual to individual, first value (increase)); 0.49 in data set [9] (6 times of freezing and thawing, relative to 1 at 2 times, different from individual to individual, second value (decrease)). Moreover, the Increase or decrease result in data set [1] is reported as “Decrease”; in data set [2], “Different from individual”; in [3] (setting [10]), “Increase”; in data set [7], “Increase”; in data set [8], “Increase”; in data set [9], “Different from individual”. Moreover, the “Rate of increase or decrease (second value, decrease)” value in data set [2] is on record as 0.49. Moreover, the “Rate of increase or decrease (first value, increase)” value in data set [2] amounted to 1.40. Further, the results for the “Time when compound is affected” value in data set [7] and in data set [8] were “After 4 hours” and “After 1 hour hours”, respectively. The “Number of times” value in data set [9] came out at 6 times.
